Results published in US20080014278A1, “METAL-CONTAINING FORMULATIONS AND METHODS OF USE” (priority 2006, published 2008).
≈ marks a conversion by molar mass, not a printed value.

How the values were obtained:
DNBS-induced colitis [1] = assay: DNBS-induced colitis in rat, macroscopic observations (body weight, total IBD score); type: in vivo, Sprague-Dawley rats; details: for total IBD score: vs placebo
From the text: Animals: Male Sprague-Dawley rats, weighing approximately 250-300 gm were purchased from Charles River Laboratories (Raleigh, N.C.). The animals were housed under standard conditions with free access to food and water. They were acclimatized for 2-3 days before commencing the experiments. The study protocol was approved by the Institutional Animal Care and Use Committees (IACUC).
Induction of ulcerative colitis: Colitis was produced according to published methods. Animals were anesthetized by intraperitoneal injection of 75 mg/kg of ketamine plus 5 mg/kg of xylazine. A single intracolonic injection of 120 mg/ml of dinitrobenzenesulfonic acid (DNBS) (Sigma Chemicals, St. Louis, Mo.) in 250 micro liter of 50% ethanol was administered through a Tom Cat catheter (Kendall Sovereign, Mansfield, Mass.) with a closed-end tip, connected to a 1 ml syringe and placed 7 cm proximal to the anus. Lubricant was applied to the tip of the catheter before injection, to protect from mucosal injury. After instillation of DNBS, 0.5 ml of air was insufflated and the catheter was removed.
Sulfasalazine (Sigma Chemicals, St Louis, Mo.), at a concentration of 120 mg/ml for intracolonic treatment and 30 mg/ml for oral treatment was used as the reference drug in all the experiments. Sulfasalazine was first dissolved in 0.1M NaOH at a concentration about 30-fold higher than the required final concentration, and then suspended in 1.5% PVA for oral dosing and 5.7% PVA for intracolonic dosing.
One group was not treated and served as no treatment group. Treatment began one day after administration of DNBS.
Macroscopic Observations: Body weight was recorded daily and the animals were examined for their physical appearance. After five days of treatment, animals were sacrificed. The colon was excised between the ileocecal junction and rectum, and opened longitudinally. After scoring of the consistency of the stool the colon was rinsed in normal saline, examined and thickness of the colonic wall and number and size of ulcers were scored. Stool consistency was graded on a scale of 0-3: 0=normal stool, well formed pellets rigid as normal; 1=loose stool, formed pellet with moisture, soft stool keeping in stool shape; 2=loose stool, stools that have abnormal form with much moisture, softer shapeless stool; 3=watery or bloody diarrhea.
Thickness of colonic wall was graded on a scale of 0-4: 0=normal, no thickness; 1=mild thickness in lower portion of the colon; 2=moderate thickness in localized area; 3=moderate thickness extending to the central portion of the colon; 4=severe thickness in the whole colon. Colonic ulceration was graded on a scale of 0-10: 0=no ulcers; 1=one small ulcer less than 2-3 mm; 2=one large ulcer more than 2-3 mm; 3=two large ulcerations more than 2-3 mm in diameter; 4=two or more sites of ulcerations extending 1 cm along the length; 5-10=when an area of ulceration extended more than 1 cm along the length of the colon, the score increases by 1 for each additional cm of involvement. The total IBD score, obtained by the sum of the scores of colonic ulcer, colon thickness and stool consistency for each animal, was calculated for each treatment group.
Statistical Analysis: The results are expressed as the mean ±SE. The statistical significance in the mean total IBD score, histopathological inflammation score, and the immunohistochemical staining of cytokines or MMP-9 was determined using Tukey-Kramer's multiple comparison tests following one-way analysis of variance (ANOVA). The data were calculated with the aid of Instat Graph Pad Software. Differences with a P value less than 0.05 were considered significant.
Methods: Colitis was induced in rats using DNBS as described in Example 25. Animals were treated intracolonically (250 μl of the test reagents) once a day for five days. […] Methods: Colitis was induced in rats using DNBS as described in Example 25. Animals were treated intracolonically (250 μl of the test reagents) once a day for five days.

DNBS-induced colitis [2] = assay: DNBS-induced colitis in rat, colon histopathology; type: in vivo, Sprague-Dawley rats
Procedure: Histopathology: A piece of colonic tissue at 2-4 cm proximal to the anus was excised and fixed in 10% formalin and the sections were stained with hematoxylin and eosin. The remaining length of the colonic tissues was stored at −80° C. for subsequent biochemical assays. The histology slides were examined by a veterinary pathologist who was blinded to the treatment groups. The extent of microscopic mucosal damage of the colon was scored on scale of 0-5 as described with slight modification: 0=normal histological appearance; 1=histological damage limited to surface epithelium, mild infiltration of the submucosa; 2=focal ulceration and cell disruption limited to mucosa, abnormal appearance of colonic wall, mild infiltration of inflammatory cells; 3=focal, transmural inflammation and ulceration, with mild to moderate infiltration of inflammatory cells; 4=Extensive transmural ulceration and inflammation bordered by areas of normal mucosa, moderate infiltration of inflammatory cells; 5=extensive transmural ulceration and inflammation involving entire section from epithelium to serosa, severe infiltration of inflammatory cells.
Statistical Analysis: The results are expressed as the mean ±SE. […] The data were calculated with the aid of Instat Graph Pad Software. […]

IL-1β = assay: Immunohistochemistry of colonic tissue; type: in vivo, rat; details: five days oral treatment
Procedure: (§1) Immunohistochemistry: A Universal Streptavidin/Biotin detection system (Thermo Shandon, Pittsburgh, Pa.) was used for immunohistochemical staining of formalin fixed, paraffin embedded biopsies of the colon. After dewaxing, and hydration, sections were treated with protein blocking agent to reduce non-specific binding of antibodies. The tissues were then incubated with rabbit anti-rat TNF-α, or mouse anti-rat IL-12 p70 antibodies (Biosource International, Inc, Camarillo, Calif.); rabbit anti-rat IL-1β (Serotec, Raleigh, N.C.) or rabbit anti-rat MMP-9 antibody (Chemicon International, Telecuma, Calif.) in 1% bovine serum albumin in phosphate buffered saline. Incubations with secondary antibodies, streptavidin/biotin, and chromogenic detection of peroxidase were performed according to the manufacturer's protocol. Sections were counterstained, dehydrated, mounted and examined. The intensity of the immuno-peroxidase staining was graded as described previously. Expression of cytokines was graded as: 0, no staining in the section; 1, less than 25% of the section; 2, 25-50% of the section; 3, 50-75% of the section; 4, >75% of the section with significant staining.

MMP-9 = assay: Immunohistochemistry of colonic tissue; type: in vivo, rat; details: vs placebo and no treatment
Procedure: as §1

TNF-α = assay: Immunohistochemistry of colonic tissue; type: in vivo, rat; details: five days oral treatment
Procedure: as §1

Enterobacter cloacae = assay: MIC assay (microdilution); type: cell-based; details: Ent. cloacae
Escherichia coli = assay: MIC assay (microdilution); type: cell-based
Pseudomonas aeruginosa = assay: MIC assay (microdilution); type: cell-based
Staphylococcus aureus = assay: MIC assay (microdilution); type: cell-based; details: lactate solutions, nanocrystalline silver: range for 12 samples
[3] = system: Staphylococcus epidermidis; assay: MIC assay (microdilution); type: cell-based; details: lactate solutions; S. epiderm (ATCC); nanocrystalline silver: range for 12 samples
Streptococcus pyogenes = assay: MIC assay (microdilution); type: cell-based; details: lactate solutions, nanocrystalline silver: range for 12 samples
Streptococcus pneumoniae = assay: MIC assay (microdilution); type: cell-based; details: lactate solutions, nanocrystalline silver: range for 12 samples
[4] = system: Mycobacterium tuberculosis H37Ra; type: cell-based

O=C(O)c1cc(/N=N/c2ccc(S(=O)(=O)Nc3ccccn3)cc2)ccc1O [sulfasalazine, salicylazosulfapyridine]
body weight (DNBS-induced colitis [1]; DNBS colitis rats, intracolonic or oral treatment): started gaining body weight after one day of treatment | total IBD score (DNBS-induced colitis [1]; Example 27, 100 mg/kg): significantly reduced total IBD score | total IBD score (DNBS-induced colitis [1]; Example 28, 100 mg/kg): significantly reduced total IBD score | histopathological inflammation score (DNBS-induced colitis [2]; oral 100 mg/kg, vs placebo and untreated): significantly reduced the histopathological inflammation | colon sections (hematoxylin and eosin) (DNBS-induced colitis [2]; oral, 40 mg/kg nanocrystalline silver, 100 mg/kg sulfasalazine): healed mucosa and few residual inflammatory infiltrate | expression of IL-1β (immunohistochemical staining) (IL-1β): significantly reduced the expression | expression of MMP-9 (immunohistochemical staining) (MMP-9): significantly reduced the expression of MMP-9 | expression of TNF-α (immunohistochemical staining) (TNF-α): significantly reduced the expression

OO [Sample H2O2, hydrogen peroxide]
MIC (Enterobacter cloacae; SOD/catalase +): >500 µg/mL | MIC (Enterobacter cloacae; SOD/catalase −): 63 µg/mL (≈ 1850 µM) | MIC (Escherichia coli; E. coli, SOD/catalase +): >500 µg/mL | MIC (Escherichia coli; E. coli, SOD/catalase −): 31 µg/mL (≈ 911 µM)

Benzalkonium chloride [BAC]
MIC (Pseudomonas aeruginosa; P. aeruginosa isolate NP220 (BAC-sensitive)): 63 µg/mL | MIC (Pseudomonas aeruginosa; P. aeruginosa isolate NP221 (BAC-resistant)): 4000 µg/mL | MIC (Pseudomonas aeruginosa; P. aeruginosa isolate NP222 (BAC-sensitive)): 63 µg/mL

silver oxide [Ag2O]
MIC (Staphylococcus aureus; S. aureus (ATCC)): 3 µg/mL | MIC (Staphylococcus aureus; S. aureus (clin.)): 6 µg/mL | MIC [3]: 2 µg/mL | MIC (Streptococcus pyogenes; S. pyog (clin. 303)): 2 µg/mL | MIC (Streptococcus pyogenes; S. pyog (clin. 304)): 3 µg/mL | MIC (Streptococcus pneumoniae; S. pneumo (clin 314)): 3 µg/mL | MIC (Streptococcus pneumoniae; S. pneumo (clin 315)): 2 µg/mL | MIC (Pseudomonas aeruginosa; lactate solutions, P. aerug (ATCC), nanocrystalline silver: range for 12 samples): 0.8 µg/mL | MIC (Pseudomonas aeruginosa; lactate solutions, P. aerug. (clin.), nanocrystalline silver: range for 12 samples): 2 µg/mL | MIC (Escherichia coli; lactate solutions, E. coli (ATCC), nanocrystalline silver: range for 12 samples): 0.8 µg/mL | MIC [4]: 2.5 μg/ml silver | total IBD score (DNBS-induced colitis [1]; Example 27, 0.25% homogenized, intracolonic, five days): unable to show significant reduction of total IBD score | total IBD score (DNBS-induced colitis [1]; Example 27, 0.5% homogenized, intracolonic, five days): unable to show significant reduction of total IBD score | total IBD score (DNBS-induced colitis [1]; Example 27, 0.5% sonicated nanodispersion, 250 μl intracolonically once a day for five days): significantly reduced the total IBD score | total IBD score (DNBS-induced colitis [1]; Example 28, 0.05% nanodispersion, intracolonic, five days): but not 0.15% and 0.05% | total IBD score (DNBS-induced colitis [1]; Example 28, 0.15% nanodispersion, intracolonic, five days): but not 0.15% and 0.05% | total IBD score (DNBS-induced colitis [1]; Example 28, 0.5% sonicated nanodispersion, 250 μl intracolonically once a day for five days): significantly reduced the total IBD score | total IBD score (DNBS-induced colitis [1]; Example 28, 1.5% nanodispersion, intracolonic, five days): significantly reduced the total IBD score
